Reference: patent publication US11851391B2, “Antifungal compounds and methods of forming the same” (University of Kentucky Research Foundation, priority 2018, dated 2023)
≈ marks a conversion by molar mass, not a printed value. Like-named read-outs stand apart in the source and are kept apart here.

Tests used:
[1] = tested on: murine red blood cells (mRBCs); details: for Percentage of hemolysis (±SDEV): mouse, 60 min
Protocol: Thus, the hemolytic activity for these bishydrazones was investigated against murine red blood cells (mRBCs).
Murine red blood cells (mRBCs) were prepared by suspending 1 mL of murine blood in 3 mL of PBS prior to centrifugation at 1,000 rpm for 5 min. The mRBCs were washed four times in PBS and resuspended in the same buffer to a final concentration of 10^7 mRBC/mL. […] The tubes were incubated at 37° C. for 60 min. […] Eppendorf tubes containing 200 μL of ddH2O and 2 μL of 1% v/v Triton™ X-100 served as negative (blank) and positive controls, respectively. The percentage of hemolysis was calculated using the following equation: % hemolysis=[(absorbance of sample)−(absorbance of blank)]×100/(absorbance of positive control).

[2] = tested on: C. albicans ATCC MYA-2876(S) (strain C); assay: MIC determination, in vitro antifungal assay (CLSI M27-A3); format: cell-based, Candida albicans; details: MIC-0, 48 h at 35° C.
Method in brief: (§1)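 Inoculum 2-4×10^3 CFU/mL from overnight YPD culture (OD600 0.12 ≈ 1×10^6 CFU/mL). DMSO <1.25% final.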

[3] = tested on: C. albicans ATCC MYA-1003(R) (strain G); assay: as above; format: cell-based, Candida albicans; details: MIC-0, 48 h at 35° C.
Method in brief: as §1

[4] = tested on: Aspergillus nidulans ATCC 38163 (strain L); assay: MIC determination against filamentous fungi (CLSI M38-A2); format: cell-based; details: MIC-0, 48 h at 35° C.
Method in brief: (§2)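 MIC-0, meaning no visible growth relative to growth control, was scored after 48 h at 35° C, in triplicate. Hemocytometer-counted spores from potato dextrose agar were inoculated at 5×10^5 CFU/mL final. The medium was MOPS-buffered (0.165 M) RPMI 1640 at pH 7.0, following CLSI M38-A2.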

[5] = tested on: Aspergillus flavus ATCC MYA-3631 (strain K); assay: as above; format: cell-based; details: MIC-0, 48 h at 35° C.
Method in brief: as §2

[6] = tested on: Aspergillus terreus ATCC MYA-3633 (strain M); assay: as above; format: cell-based; details: MIC-0, 48 h at 35° C.
Method in brief: as §2

[7] = Candida albicans, 48 h, read-out: MIC
[8] = Aspergillus nidulans, ATCC38163, 48 h, read-out: MIC
[9] = Aspergillus flavus, 48 h, read-out: MIC
[10] = Aspergillus terreus, 48 h, read-out: MIC

Row | Structure (SMILES) | MIC [2, 7] [µg/mL] | MIC [2] [µg/mL] | MIC [3, 7] [µg/mL] | MIC [3] [µg/mL] | MIC [4, 8] [µg/mL] | MIC [4] [µg/mL] | MIC [5, 9] [µg/mL] | MIC [5] [µg/mL] | MIC [6, 10] [µg/mL] | MIC [6] [µg/mL] | Percentage of hemolysis (±SDEV) ([1]; 0.975 μg/mL) [%] | Percentage of hemolysis (±SDEV) ([1]; 1.95 μg/mL) [%] | Percentage of hemolysis (±SDEV) ([1]; 3.9 μg/mL) [%] | Percentage of hemolysis (±SDEV) ([1]; 7.8 μg/mL) [%] | Percentage of hemolysis (±SDEV) ([1]; 15.6 μg/mL) [%] | Percentage of hemolysis (±SDEV) ([1]; 31.3 μg/mL) [%] | Percentage of hemolysis (±SDEV) ([1]; 62.5 μg/mL) [%] | hemolytic activity (in words) [1]
1 | Fc1ccc(N/N=C/c2ccc(-c3cccc(/C=N/Nc4ccc(F)cc4)c3)cc2)cc1 [Compound 17a] | 7.8 (≈ 18.3 µM) | – | 1.95 to 3.9 (≈ 4.57 to 9.14 µM) | 3.9 (≈ 9.14 µM) | 1.95 to 3.9 (≈ 4.57 to 9.14 µM) | 3.9 (≈ 9.14 µM) | 15.6 (≈ 36.6 µM) | – | > 31.3 | – | 0 | 6.0 ± 2.1 | 4.3 ± 1.6 | 9.5 ± 3.3 | 9.9 ± 2.1 | 14.4 ± 0.9 | 26.1 ± 11.1 | –
2 | COc1ccc(N/N=C/c2ccc(-c3cccc(/C=N/Nc4ccc(OC)cc4)c3)cc2)cc1 [Compound 15a] | 1.95 to 3.9 (≈ 4.33 to 8.66 µM) | 3.9 (≈ 8.66 µM) | – | – | 31.3 (≈ 69.5 µM) | – | > 31.3 | – | > 31.3 | – | 2.6 ± 3.4 | 4.5 ± 1.7 | 3.0 ± 1.6 | 2.6 ± 2.8 | 7.8 ± 3.3 | 9.6 ± 1.7 | – | lack of hemolytic activity
3 | Fc1cccc(N/N=C/c2ccc(-c3cccc(/C=N/Nc4cccc(F)c4)c3)cc2)c1 [Compound 12a] | 7.8 to 15.6 (≈ 18.3 to 36.6 µM) | 7.8 (≈ 18.3 µM) | 7.8 to 15.6 (≈ 18.3 to 36.6 µM) | 7.8 (≈ 18.3 µM) | 7.8 to 15.6 (≈ 18.3 to 36.6 µM) | 7.8 (≈ 18.3 µM) | 1.95 to 3.9 (≈ 4.57 to 9.14 µM) | 3.9 (≈ 9.14 µM) | > 31.3 | – | 4.6 ± 2.5 | 0.6 ± 0.6 | 2.5 ± 2.7 | 7.9 ± 0.1 | – | 32.6 ± 9.6 | 39.5 ± 12.1 | lack of hemolytic activity
4 | COc1ccc(N/N=C/c2ccc(-c3ccc(/C=N/Nc4ccc(OC)cc4)cc3)cc2)cc1 [Compound 15b] | 7.8 to 15.6 (≈ 17.3 to 34.6 µM) | 7.8 (≈ 17.3 µM) | 7.8 to 15.6 (≈ 17.3 to 34.6 µM) | 7.8 (≈ 17.3 µM) | 7.8 to 15.6 (≈ 17.3 to 34.6 µM) | 7.8 (≈ 17.3 µM) | > 31.3 | – | > 31.3 | – | 1.6 ± 2.3 | 1.9 ± 0.3 | 2.8 ± 0.6 | 4.2 ± 3.1 | 6.7 ± 2.0 | 12.6 ± 4.7 | – | lack of hemolytic activity
5 | C(=N\Nc1ccccc1)/c1ccc(-c2cccc(/C=N/Nc3ccccc3)c2)cc1 [Compound 7a] | 31.3 (≈ 80.2 µM) | – | 1.95 to 3.9 (≈ 4.99 to 9.99 µM) | 3.9 (≈ 9.99 µM) | 1.95 to 3.9 (≈ 4.99 to 9.99 µM) | 1.95 (≈ 4.99 µM) | 1.95 to 3.9 (≈ 4.99 to 9.99 µM) | 3.9 (≈ 9.99 µM) | 7.8 to 15.6 (≈ 20 to 39.9 µM) | 15.6 (≈ 39.9 µM) | 0 | 3.5 ± 3.3 | 1.5 ± 0.9 | 8.5 ± 5.1 | 14.1 ± 0.1 | 16.7 ± 0.9 | – | lack of hemolytic activity

Second part, led by results:

Row | MIC [2, 7] [µg/mL] | MIC [2] [µg/mL] | MIC [3, 7] [µg/mL] | MIC [3] [µg/mL] | MIC [4, 8] [µg/mL] | MIC [4] [µg/mL] | MIC [5, 9] [µg/mL] | MIC [5] [µg/mL] | MIC [6, 10] [µg/mL] | MIC [6] [µg/mL] | Structure (SMILES) | Percentage of hemolysis (±SDEV) ([1]; 0.975 μg/mL) [%] | Percentage of hemolysis (±SDEV) ([1]; 1.95 μg/mL) [%] | Percentage of hemolysis (±SDEV) ([1]; 3.9 μg/mL) [%] | Percentage of hemolysis (±SDEV) ([1]; 7.8 μg/mL) [%] | Percentage of hemolysis (±SDEV) ([1]; 15.6 μg/mL) [%] | Percentage of hemolysis (±SDEV) ([1]; 31.3 μg/mL) [%] | Percentage of hemolysis (±SDEV) ([1]; 62.5 μg/mL) [%] | hemolytic activity (in words) [1]
6 | 7.8 to 15.6 (≈ 18.3 to 36.6 µM) | 7.8 (≈ 18.3 µM) | 7.8 to 15.6 (≈ 18.3 to 36.6 µM) | 7.8 (≈ 18.3 µM) | 7.8 to 15.6 (≈ 18.3 to 36.6 µM) | 7.8 (≈ 18.3 µM) | 7.8 to 15.6 (≈ 18.3 to 36.6 µM) | 7.8 (≈ 18.3 µM) | > 31.3 | – | Fc1ccc(N/N=C/c2ccc(-c3ccc(/C=N/Nc4ccc(F)cc4)cc3)cc2)cc1 [Compound 17b] | 0 | 1.1 ± 1.5 | 0.7 ± 1.1 | 3.2 ± 3.0 | 9.0 ± 8.5 | 9.6 ± 6.7 | 28.3 ± 4.1 | –
7 | 15.6 (≈ 33.7 µM) | – | 7.8 (≈ 16.9 µM) | – | 7.8 (≈ 16.9 µM) | – | 7.8 (≈ 16.9 µM) | – | 31.3 (≈ 67.7 µM) | – | Fc1ccc(N/N=C/c2ccc(-c3cccc(/C=N/Nc4ccc(F)cc4F)c3)cc2)c(F)c1 [Compound 20a] | 0 | 4.5 ± 2.3 | 4.2 ± 2.8 | 8.6 ± 1.6 | 14.6 ± 1.6 | 14.6 ± 0.7 | – | lack of hemolytic activity
8 | 1.95 to 3.9 (≈ 4.29 to 8.58 µM) | 3.9 (≈ 8.58 µM) | 7.8 (≈ 17.2 µM) | – | 7.8 (≈ 17.2 µM) | – | > 31.3 | – | > 31.3 | – | C/C(=N\Nc1ccc(F)cc1)c1ccc(-c2ccc(/C(C)=N/Nc3ccc(F)cc3)cc2)cc1 [Compound 17c, 4,4′-bis((E)-1-(2-(4-fluorophenyl)hydrazono)ethyl)-1,1′-biphenyl] | 1.4 ± 1.1 | 2.6 ± 0.9 | 2.6 ± 2.7 | 5.9 ± 0.3 | 7.4 ± 1.1 | 9.5 ± 2.2 | 26.2 ± 7.7 | –
